According to PMC10149103 (Journal of medicinal chemistry, 2022):
Several values for one entry are separate records, joined by “and”; a condition that tells them apart may be missing. Equal values may be shown once. Where a name gives a salt, the structure may show the parent alone.

What was measured:
DOR [1] = target: T1, DOR (Homo sapiens, UniProt P41143); assay: biochemical; conditions: read-out: DOR [35S]GTPγS Binding % Emax of SNC80
KOR [2] = target: T2, KOR (Mus musculus, UniProt P33534); assay: biochemical; conditions: read-out: KOR [35S]GTPγS Binding % Emax of U50,488H
T2 sequence (P33534 whole entry): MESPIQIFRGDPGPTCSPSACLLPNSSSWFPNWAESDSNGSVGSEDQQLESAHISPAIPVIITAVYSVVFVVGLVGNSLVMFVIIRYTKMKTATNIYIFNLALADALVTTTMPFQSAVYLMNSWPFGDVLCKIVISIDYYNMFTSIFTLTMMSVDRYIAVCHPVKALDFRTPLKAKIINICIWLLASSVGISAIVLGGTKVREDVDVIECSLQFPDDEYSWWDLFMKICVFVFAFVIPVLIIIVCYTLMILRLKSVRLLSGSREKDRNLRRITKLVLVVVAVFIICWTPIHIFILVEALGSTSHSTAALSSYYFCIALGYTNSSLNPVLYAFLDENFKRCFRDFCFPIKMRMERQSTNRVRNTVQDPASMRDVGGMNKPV

MOR = MOR (Mus musculus, UniProt P42866); assay: biochemical; assay type: biochemical; conditions: for Emax: read-out: MOR [35S]GTPγS Binding % Emax of DAMGO
Sequence of MOR (P42866 whole entry): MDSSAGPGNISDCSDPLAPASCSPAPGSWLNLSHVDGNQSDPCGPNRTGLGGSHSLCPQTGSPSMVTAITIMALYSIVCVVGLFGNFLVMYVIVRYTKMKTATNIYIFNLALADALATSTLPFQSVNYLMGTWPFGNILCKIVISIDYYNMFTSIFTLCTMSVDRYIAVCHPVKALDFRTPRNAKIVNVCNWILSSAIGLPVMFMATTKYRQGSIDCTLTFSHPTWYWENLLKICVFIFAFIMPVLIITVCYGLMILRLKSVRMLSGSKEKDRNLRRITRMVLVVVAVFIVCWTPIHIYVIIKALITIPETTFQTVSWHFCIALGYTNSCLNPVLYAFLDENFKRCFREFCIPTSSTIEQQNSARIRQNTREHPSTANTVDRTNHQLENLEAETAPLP

KOR [3] = target: T2, KOR; assay type: binding
DOR [4] = target: T1, DOR; assay: biochemical; assay type: binding

T1 sequence (P41143 whole entry): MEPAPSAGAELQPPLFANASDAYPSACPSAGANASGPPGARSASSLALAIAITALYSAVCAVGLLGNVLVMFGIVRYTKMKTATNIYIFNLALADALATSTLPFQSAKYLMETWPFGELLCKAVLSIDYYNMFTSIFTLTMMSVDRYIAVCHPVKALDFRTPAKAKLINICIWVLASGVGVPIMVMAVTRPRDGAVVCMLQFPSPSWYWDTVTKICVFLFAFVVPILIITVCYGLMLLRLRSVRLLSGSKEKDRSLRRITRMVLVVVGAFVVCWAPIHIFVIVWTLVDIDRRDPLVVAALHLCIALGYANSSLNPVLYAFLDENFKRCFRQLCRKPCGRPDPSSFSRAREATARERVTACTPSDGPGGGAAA

| Structure (SMILES) | Emax (DOR [1]) [%] | Emax (KOR [2]) [%] | MOR [35S]GTPγS Binding % Emax of DAMGO (MOR) [%] | Selectivity κ/μ (KOR [3]) | Selectivity δ/μ (DOR [4]) | Emax (MOR) [%] | Ki (DOR [4]) [nM] |
| --- | --- | --- | --- | --- | --- | --- | --- |
| Cl.O=C(N[C@H]1CC[C@@]2(O)[C@H]3Cc4ccc(O)c5c4[C@@]2(CCN3CC2CC2)[C@H]1O5)c1ccc[nH]1 [Compound 1, 17-Cyclopropylmethyl-3,14β-dihydroxy-4,5α-epoxy-6a-[(2′-pyrrolyl)carboxamido]morphinan Hydrochloride] | 50.9 ± 5.25 | 43.4 ± 1.36 | 12.11 ± 2.64 | – | – | – | – |
| Cl.O=C(Cc1ccc[nH]1)N[C@H]1CC[C@@]2(O)[C@H]3Cc4ccc(O)c5c4[C@@]2(CCN3CC2CC2)[C@H]1O5 [Compound 3, 17-Cyclopropylmethyl-3,14β-dihydroxy-4,5α-epoxy-6a-[2′-(2′-pyrrolyl)acetamido]morphinan Hydrochloride] | – | – | – | 6 | 8 | 25 ± 2.61 | – |
| Cl.O=C(Cc1ccc[nH]1)N[C@@H]1CC[C@@]2(O)[C@H]3Cc4ccc(O)c5c4[C@@]2(CCN3CC2CC2)[C@H]1O5 [Compound 4, 17-Cyclopropylmethyl-3,14β-dihydroxy-4,5α-epoxy-6β-[2′-(2′-pyrrolyl)acetamido]morphinan Hydrochloride] | – | – | – | 8 | 152 | 44.2 ± 1.52 | – |
| Cl.O=C(CCc1ccc[nH]1)N[C@H]1CC[C@@]2(O)[C@H]3Cc4ccc(O)c5c4[C@@]2(CCN3CC2CC2)[C@H]1O5 [Compound 5, 17-Cyclopropylmethyl-3,14β-dihydroxy-4,5α-epoxy-6α[3′-(2′-pyrrolyl)propanamido]morphinan Hydrochloride] | – | – | – | – | – | 24 ± 3.59 | – |
| Cl.O=C(CCc1ccc[nH]1)N[C@@H]1CC[C@@]2(O)[C@H]3Cc4ccc(O)c5c4[C@@]2(CCN3CC2CC2)[C@H]1O5 [Compound 6, 17-Cyclopropylmethyl-3,14β-dihydroxy-4,5α-epoxy-6β-[3′-(2′-pyrrolyl)propanamido]morphinan Hydrochloride] | – | – | – | 2 | 70 | 39.3 ± 3.16 | – |
| Cl.O=C(N[C@H]1CC[C@@]2(O)[C@H]3Cc4ccc(O)c5c4[C@@]2(CCN3CC2CC2)[C@H]1O5)c1cc[nH]c1 [Compound 7, 17-Cyclopropylmethyl-3,14β-dihydroxy-4,5α-epoxy-6α-[(3′-pyrrolyl)carboxamido]morphinan Hydrochloride] | – | – | 16.65 ± 1.25 | 2 | 31 | – | – |
| Cl.O=C(Cc1cc[nH]c1)N[C@H]1CC[C@@]2(O)[C@H]3Cc4ccc(O)c5c4[C@@]2(CCN3CC2CC2)[C@H]1O5 [Compound 9, 17-Cyclopropylmethyl-3, 14β-dihydroxy-4,5α-epoxy-6α-[(3′-pyrrolyl)acetamido]morphinan Hydrochloride] | – | – | – | 5 | 4 | 31.6 ± 2.87 | – |
| Cl.O=C(Cc1cc[nH]c1)N[C@@H]1CC[C@@]2(O)[C@H]3Cc4ccc(O)c5c4[C@@]2(CCN3CC2CC2)[C@H]1O5 [Compound 10, 17-Cyclopropylmethyl-3,14β-dihydroxy-4,5α-epoxy-6β-[(3′-pyrrolyl)acetamido]morphinan Hydrochloride] | – | – | – | – | – | 53.3 ± 0.95 | – |
| Cl.O=C(CCc1cc[nH]c1)N[C@@H]1CC[C@@]2(O)[C@H]3Cc4ccc(O)c5c4[C@@]2(CCN3CC2CC2)[C@H]1O5 [Compound 12] | – | – | – | 7 | 164 | 37.7 ± 0.87 | – |
| Cl.O=C(N[C@H]1CC[C@@]2(O)[C@H]3Cc4ccc(O)c5c4[C@@]2(CCN3CC2CC2)[C@H]1O5)c1ccco1 [Compound 13, 17-Cyclopropylmethyl-3,14β-dihydroxy-4,5α-epoxy-6α-[(2′furanyl)carboxamido]morphinan Hydrochloride] | – | – | – | 3.83 and 4 | 62.83 and 63 | 21.8 ± 5.19 | – |
| Cl.O=C(N[C@@H]1CC[C@@]2(O)[C@H]3Cc4ccc(O)c5c4[C@@]2(CCN3CC2CC2)[C@H]1O5)c1ccco1 [Compound 14, 17-Cyclopropylmethyl-3,14β-dihydroxy-4,5α-epoxy-6β-[(2′furanyl)carboxamido]morphinan Hydrochloride] | 23.1 ± 0.97 | 67.2 ± 2.53 | – | – | – | 24.2 ± 0.9 | – |
| Cl.O=C(Cc1ccco1)N[C@H]1CC[C@@]2(O)[C@H]3Cc4ccc(O)c5c4[C@@]2(CCN3CC2CC2)[C@H]1O5 [Compound 15, 17-Cyclopropylmethyl-3, 14β-dihydroxy-4,5α-epoxy-6α-[(2′-furanyl)acetamido]morphinan Hydrochloride] | 66.8 ± 4.24 | 63.3 ± 2.5 | – | – | – | 22.6 ± 2.77 | – |
| Cl.O=C(Cc1ccco1)N[C@@H]1CC[C@@]2(O)[C@H]3Cc4ccc(O)c5c4[C@@]2(CCN3CC2CC2)[C@H]1O5 [Compound 16, 17-Cyclopropylmethyl-3,14β-dihydroxy-4,5α-epoxy-6β-[(2′-furanyl)acetamido]morphinan Hydrochloride] | 31.2 ± 1.49 | 49.3 ± 1.07 | – | – | – | 40 ± 0.9 | – |
| Cl.O=C(CCc1ccco1)N[C@H]1CC[C@@]2(O)[C@H]3Cc4ccc(O)c5c4[C@@]2(CCN3CC2CC2)[C@H]1O5 [Compound 17, 17-Cyclopropylmethyl-3, 14β-dihydroxy-4,5α-epoxy-6α-[(2′-furanyl)propanamido]morphinan Hydrochloride] | – | – | – | – | 4 | – | – |
| Cl.O=C(CCc1ccco1)N[C@@H]1CC[C@@]2(O)[C@H]3Cc4ccc(O)c5c4[C@@]2(CCN3CC2CC2)[C@H]1O5 [Compound 18, 17-Cyclopropylmethyl-3,14β-dihydroxy-4,5α-epoxy-6β-[(2′-furanyl)propanamido]morphinan Hydrochloride] | – | – | – | 2 | 118 | – | – |
| Cl.O=C(N[C@H]1CC[C@@]2(O)[C@H]3Cc4ccc(O)c5c4[C@@]2(CCN3CC2CC2)[C@H]1O5)c1ccoc1 [Compound 19, 17-Cyclopropylmethyl-3, 14β-dihydroxy-4,5α-epoxy-6α-[(3′-furanyl)carboxamido]morphinan Hydrochloride] | – | – | 18.14 ± 2.95 | – | – | – | – |
| Cl.O=C(N[C@@H]1CC[C@@]2(O)[C@H]3Cc4ccc(O)c5c4[C@@]2(CCN3CC2CC2)[C@H]1O5)c1ccoc1 [Compound 20, 17-Cyclopropylmethyl-3,14β-dihydroxy-4,5α-epoxy-6β-[(3′-furanyl)carboxamido]morphinan Hydrochloride] | – | – | – | 3 | 234 | 25 ± 1.74 | – |
| Cl.O=C(Cc1ccoc1)N[C@H]1CC[C@@]2(O)[C@H]3Cc4ccc(O)c5c4[C@@]2(CCN3CC2CC2)[C@H]1O5 [Compound 21, 17-Cyclopropylmetyl-3, 14β-dihydroxy-4,5α-epoxy-6α-[(3′-furanyl)acetamido]morphinan Hydrochloride] | – | – | 14.95 ± 1.46 | 15 | 9 | – | – |
| Cl.O=C(Cc1ccoc1)N[C@@H]1CC[C@@]2(O)[C@H]3Cc4ccc(O)c5c4[C@@]2(CCN3CC2CC2)[C@H]1O5 [Compound 22, 17-Cyclopropylmetyl-3,14β-dihydroxy-4,5α-epoxy-6β-[(3′-furanyl)acetamido]morphinan Hydrochloride] | – | – | – | 16.7 and 17 | 332 | 30.8 ± 2.07 | – |
| O=C(Cc1cccs1)N[C@H]1CC[C@@]2(O)[C@H]3Cc4ccc(O)c5c4[C@@]2(CCN3CC2CC2)[C@H]1O5 [Compound 27, 17-Cyclopropylmethyl-3,14β-dihydroxy-4,5α-epoxy-6α-(2′-thienylacetamido)morphinan Hydrochloride] | – | – | – | – | – | – | 6.92 ± 1.63 |
